Measured values published in PubChem BioAssay AID1259407 (Chemical Carcinogenesis Research Information System (CCRIS), 2018).
Calls of active or inactive are those of the source. How the calls were made is not given here.

Tested on: CCRIS mutagenicity, Ames/micronucleus/aberration tests
Test: CCRIS mutagenicity studies
[1] = Test System: AMES SALMONELLA TYPHIMURIUM, Strain/Indicator: TA98, Metabolic Activation: NONE, Method: STANDARD PLATE
[2] = Test System: AMES SALMONELLA TYPHIMURIUM, Strain/Indicator: TA100, Metabolic Activation: NONE, Method: STANDARD PLATE

Measured: mutagenic call

c1ccc2c(c1)ccc1[nH]c3ccc4ccccc4c3c12
active: Test System: AMES SALMONELLA TYPHIMURIUM, Strain/Indicator: TM677, Metabolic Activation: RAT, LIVER, S-9, 3-METHYLCHOLANTHRENE (1%), Method: PREINCUBATION active; positive
inactive: [1] inactive; negative | Test System: AMES SALMONELLA TYPHIMURIUM, Strain/Indicator: TA98, Metabolic Activation: RAT, LIVER, S-9, 3-METHYLCHOLANTHRENE, Method: STANDARD PLATE inactive; negative | Test System: AMES SALMONELLA TYPHIMURIUM, Strain/Indicator: TA98, Metabolic Activation: RAT, LIVER, S-9, AROCLOR 1254, Method: STANDARD PLATE inactive; negative | Test System: AMES SALMONELLA TYPHIMURIUM, Strain/Indicator: TA98, Metabolic Activation: RAT, LIVER, S-9, PHENOBARBITAL, Method: STANDARD PLATE inactive; negative | Test System: AMES SALMONELLA TYPHIMURIUM, Strain/Indicator: TA100, Metabolic Activation: MOUSE, LIVER, S-9, BETA-NAPHTHOFLAVONE, Method: STANDARD PLATE inactive; negative | Test System: AMES SALMONELLA TYPHIMURIUM, Strain/Indicator: TA100, Metabolic Activation: MOUSE, LIVER, S-9, PHENOBARBITAL, Method: STANDARD PLATE inactive; negative | [2] inactive; negative | Test System: AMES SALMONELLA TYPHIMURIUM, Strain/Indicator: TA100, Metabolic Activation: RABBIT, LIVER, S-9, BENZO[A]PYRENE, Method: STANDARD PLATE inactive; negative | Test System: AMES SALMONELLA TYPHIMURIUM, Strain/Indicator: TA100, Metabolic Activation: RAT, LIVER, S-9, PHENOBARBITAL, Method: STANDARD PLATE inactive; negative | Test System: AMES SALMONELLA TYPHIMURIUM, Strain/Indicator: TM677, Metabolic Activation: NONE, Method: PREINCUBATION inactive; negative | Test System: AMES SALMONELLA TYPHIMURIUM, Strain/Indicator: TM677, Metabolic Activation: RAT, LIVER, S-9, 3-METHYLCHOLANTHRENE (10%), Method: PREINCUBATION inactive; negative

N[C@@H](CCC(=O)N[C@@H](CS/C(Cl)=C\Cl)C(=O)NCC(=O)O)C(=O)O
active: Test System: AMES SALMONELLA TYPHIMURIUM, Strain/Indicator: TA2638, Metabolic Activation: NONE, Method: PREINCUBATION active; positive | Test System: AMES SALMONELLA TYPHIMURIUM, Strain/Indicator: TA2638, Metabolic Activation: RAT, KIDNEY, CYTOSOL, Method: PREINCUBATION active; positive | Test System: AMES SALMONELLA TYPHIMURIUM, Strain/Indicator: TA2638, Metabolic Activation: RAT, KIDNEY, MICROSOMES, Method: PREINCUBATION active; positive | Test System: AMES SALMONELLA TYPHIMURIUM, Strain/Indicator: TA2638, Metabolic Activation: RAT, KIDNEY, MITOCHONDRIA, Method: PREINCUBATION active; positive

FC(F)C(F)C(F)(F)F (configuration not stated)
inactive: Test System: AMES SALMONELLA TYPHIMURIUM, Strain/Indicator: TA97, Metabolic Activation: NONE, Method: CLOSED GLASS VESSEL inactive; negative | Test System: AMES SALMONELLA TYPHIMURIUM, Strain/Indicator: TA97, Metabolic Activation: RAT LIVER S-9, AROCLOR 1254, Method: CLOSED GLASS VESSEL inactive; negative | Test System: AMES SALMONELLA TYPHIMURIUM, Strain/Indicator: TA98, Metabolic Activation: NONE, Method: CLOSED GLASS VESSEL inactive; negative | Test System: AMES SALMONELLA TYPHIMURIUM, Strain/Indicator: TA98, Metabolic Activation: RAT LIVER S-9, AROCLOR 1254, Method: CLOSED GLASS VESSEL inactive; negative | Test System: AMES SALMONELLA TYPHIMURIUM, Strain/Indicator: TA100, Metabolic Activation: NONE, Method: CLOSED GLASS VESSEL inactive; negative | Test System: AMES SALMONELLA TYPHIMURIUM, Strain/Indicator: TA100, Metabolic Activation: RAT LIVER S-9, AROCLOR 1254, Method: CLOSED GLASS VESSEL inactive; negative | Test System: AMES SALMONELLA TYPHIMURIUM, Strain/Indicator: TA1535, Metabolic Activation: NONE, Method: CLOSED GLASS VESSEL inactive; negative | Test System: AMES SALMONELLA TYPHIMURIUM, Strain/Indicator: TA1535, Metabolic Activation: RAT LIVER S-9, AROCLOR 1254, Method: CLOSED GLASS VESSEL inactive; negative | Test System: ESCHERICHIA COLI, Strain/Indicator: WP2 UVR A, Metabolic Activation: NONE, Method: CLOSED GLASS VESSEL inactive; negative | Test System: ESCHERICHIA COLI, Strain/Indicator: WP2 UVR A, Metabolic Activation: RAT LIVER S-9, AROCLOR 1254, Method: CLOSED GLASS VESSEL inactive; negative

Cc1cccn2c(=O)c(-c3nnn[nH]3)cnc12
inactive: [1] inactive; negative | Test System: AMES SALMONELLA TYPHIMURIUM, Strain/Indicator: TA98, Metabolic Activation: S-9, Method: STANDARD PLATE inactive; negative | [2] inactive; negative | Test System: AMES SALMONELLA TYPHIMURIUM, Strain/Indicator: TA100, Metabolic Activation: S-9, Method: STANDARD PLATE inactive; negative | Test System: AMES SALMONELLA TYPHIMURIUM, Strain/Indicator: TA1535, Metabolic Activation: NONE, Method: STANDARD PLATE inactive; negative | Test System: AMES SALMONELLA TYPHIMURIUM, Strain/Indicator: TA1535, Metabolic Activation: S-9, Method: STANDARD PLATE inactive; negative | Test System: AMES SALMONELLA TYPHIMURIUM, Strain/Indicator: TA1537, Metabolic Activation: NONE, Method: STANDARD PLATE inactive; negative | Test System: AMES SALMONELLA TYPHIMURIUM, Strain/Indicator: TA1537, Metabolic Activation: S-9, Method: STANDARD PLATE inactive; negative | Test System: AMES SALMONELLA TYPHIMURIUM, Strain/Indicator: TA1538, Metabolic Activation: NONE, Method: STANDARD PLATE inactive; negative | Test System: AMES SALMONELLA TYPHIMURIUM, Strain/Indicator: TA1538, Metabolic Activation: S-9, Method: STANDARD PLATE inactive; negative | Test System: E. COLI, Strain/Indicator: WP2 UVRA, Metabolic Activation: NONE, Method: STANDARD PLATE inactive; negative | Test System: E. COLI, Strain/Indicator: WP2 UVRA, Metabolic Activation: S-9, Method: STANDARD PLATE inactive; negative

O=C(Cl)c1ccccc1
active: Test System: AMES SALMONELLA TYPHIMURIUM, Strain/Indicator: TA98, Metabolic Activation: NONE, Method: 0-1000 UG/PLATE active; positive | Test System: AMES SALMONELLA TYPHIMURIUM, Strain/Indicator: TA98, Metabolic Activation: RAT LIVER S-9, PCB, Method: PREINCUBATION active; positive | Test System: AMES SALMONELLA TYPHIMURIUM, Strain/Indicator: TA100, Metabolic Activation: NONE, Method: PREINCUBATION active; positive | [2] active; positive | Test System: AMES SALMONELLA TYPHIMURIUM, Strain/Indicator: TA100, Metabolic Activation: RAT LIVER S-9, PCB, Method: PREINCUBATION active; positive | Test System: AMES SALMONELLA TYPHIMURIUM, Strain/Indicator: TA104, Metabolic Activation: NONE, Method: PREINCUBATION active; positive | Test System: AMES SALMONELLA TYPHIMURIUM, Strain/Indicator: TA104, Metabolic Activation: RAT LIVER S-9, PCB, Method: PREINCUBATION active; positive | Test System: E.COLI, Strain/Indicator: WP2 UVRA, Metabolic Activation: NONE, Method: PREINCUBATION active; positive | Test System: E.COLI, Strain/Indicator: WP2 UVRA, Metabolic Activation: RAT LIVER S-9, PCB, Method: PREINCUBATION active; positive
